Data as given in patent publication US12780800B1, “Triazole-pyridinyl substituted azacyclohexyl acetic acid compounds as LPA receptor antagonists” (Viva Star Biosciences Limited, priority 2021, dated 2022).

Target: T1, LPA1 (Homo sapiens, UniProt Q92633)
T1 construct: ProLink (PK) beta-galactosidase enzyme-fragment tag; host or cells: CHO-K1
Test: LPA1 calcium flux assay (LPA1 functional antagonist assay)
Format: cell-based
Conditions: PathHunter CHO-K1 EDG2 β-Arrestin cell line; calcium indicator dye; stimulated with EC80 concentration of LPA; FLIPR Tetra
Method: Following overnight culture, cells were loaded with calcium indicator dye from the HitHunter Calcium No WashPLUS Assay kit (Eurofins DiscoverX Corporation, Cat #93-0091) for 45 minutes at 37° C. […] After compound addition, assay plates were equilibrated to room temperature for 30 minutes. […] IC50 values were determined by Chemical and Biological Information System from ChemInnovation Software, Inc. The compounds of this invention were tested for their activity to inhibit LPA1 as determined in an LPA1 functional antagonist assay as described herein.

T1 sequence (Q92633 whole entry, the tested form may be a part): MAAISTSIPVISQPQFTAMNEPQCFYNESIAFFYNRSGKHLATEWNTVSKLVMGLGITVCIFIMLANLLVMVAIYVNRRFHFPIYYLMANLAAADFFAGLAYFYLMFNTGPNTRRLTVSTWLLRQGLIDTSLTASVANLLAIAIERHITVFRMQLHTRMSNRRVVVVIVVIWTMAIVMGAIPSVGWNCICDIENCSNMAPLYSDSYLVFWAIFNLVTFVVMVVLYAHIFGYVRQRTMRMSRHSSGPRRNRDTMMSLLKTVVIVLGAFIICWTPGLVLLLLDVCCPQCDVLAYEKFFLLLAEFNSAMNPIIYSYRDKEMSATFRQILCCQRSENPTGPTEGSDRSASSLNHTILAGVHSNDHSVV

IC50 [nM]	Structure (SMILES)
100 to 500	CCCc1ccc(=O)n(Cc2c(-c3ccc(N4C[C@@H](F)C[C@H](CC(=O)O)C4)c(CC)n3)nnn2C)c1 (single isomer, unassigned) [Example 45, 2-((3S,5S) or (3R,5R)-1-(2-ethyl-6-(1-methyl-5-((2-oxo-5-propylpyridin-1(2H)-yl)methyl)-1H-1,2,3-triazol-4-yl)pyridin-3-yl)-5-fluoropiperidin-3-yl)acetic acid]
> 5000	CCCc1ccc(=O)n(Cc2c(-c3ccc(N4C[C@H](F)C[C@@H](CC(=O)O)C4)c(CC)n3)nnn2C)c1 (single isomer, unassigned) [Example 46, 2-((3R,5R) or (33,5S)-1-(2-ethyl-6-(1-methyl-5-((2-oxo-5-propylpyridin-1(2H)-yl)methyl)-1H-1,2,3-triazol-4-yl)pyridin-3-yl)-5-fluoropiperidin-3-yl)acetic acid]
500 to 5000	CCCc1ccc(=O)n(Cc2c(-c3ccc(N4CCCC(CC(=O)O)C4=O)c(CC)n3)nnn2C)c1 (single isomer, unassigned) [Example 52, (R) or (S)-2-(1-(2-ethyl-6-(1-methyl-5-((2-oxo-5-propylpyridin-1(2H)-yl)methyl)-1H-1,2,3-triazol-4-yl)pyridin-3-yl)-2-oxopiperidin-3-yl)acetic acid]
> 5000	CCCc1ccc(=O)n(Cc2c(-c3ccc(N4CCCC(CC(=O)O)C4=O)c(CC)n3)nnn2C)c1 (single isomer, unassigned) [Example 53, (S) or (R)-2-(1-(2-ethyl-6-(1-methyl-5-((2-oxo-5-propylpyridin-1(2H)-yl)methyl)-1H-1,2,3-triazol-4-yl)pyridin-3-yl)-2-oxopiperidin-3-yl)acetic acid]
> 5000	CCCc1ccc(=O)n(Cc2c(-c3ccc(N4CC(CC(=O)O)CCC4=O)c(CC)n3)nnn2C)c1 (single isomer, unassigned) [Example 54, (R) or (S)-2-(1-(2-ethyl-6-(1-methyl-5-((2-oxo-5-propylpyridin-1(2H)-yl)methyl)-1H-1,2,3-triazol-4-yl)pyridin-3-yl)-6-oxopiperidin-3-yl)acetic acid]
> 5000	CCCc1ccc(=O)n(Cc2c(-c3ccc(N4CC(CC(=O)O)CCC4=O)c(CC)n3)nnn2C)c1 (single isomer, unassigned) [Example 55, (S) or (R)-2-(1-(2-ethyl-6-(1-methyl-5-((2-oxo-5-propylpyridin-1(2H)-yl)methyl)-1H-1,2,3-triazol-4-yl)pyridin-3-yl)-6-oxopiperidin-3-yl)acetic acid]
> 5000	CCc1nc(-c2nnn(C)c2COc2nccc(C3CCC3)n2)ccc1N1CC(CC(=O)O)CCC1=O (single isomer, unassigned) [Example 91, (R) or (S)-2-(1-(6-(5-(((4-cyclobutylpyrimidin-2-yl)oxy)methyl)-1-methyl-1H-1,2,3-triazol-4-yl)-2-ethylpyridin-3-yl)-6-oxopiperidin-3-yl)acetic acid]
> 5000	CCc1nc(-c2nnn(C)c2COc2nccc(C3CCC3)n2)ccc1N1CC(CC(=O)O)CCC1=O (single isomer, unassigned) [Example 92, (S) or (R)-2-(1-(6-(5-(((4-cyclobutylpyrimidin-2-yl)oxy)methyl)-1-methyl-1H-1,2,3-triazol-4-yl)-2-ethylpyridin-3-yl)-6-oxopiperidin-3-yl)acetic acid]
100 to 500	CCc1nc(-c2nnn(C)c2COc2nccc(C3CCC3)n2)ccc1N1CCCC(CC(=O)O)C1=O (single isomer, unassigned) [Example 93, (R) or (S)-2-(1-(6-(5-(((4-cyclobutylpyrimidin-2-yl)oxy)methyl)-1-methyl-1H-1,2,3-triazol-4-yl)-2-ethylpyridin-3-yl)-2-oxopiperidin-3-yl)acetic acid]
500 to 5000	CCc1nc(-c2nnn(C)c2COc2nccc(C3CCC3)n2)ccc1N1CCCC(CC(=O)O)C1=O (single isomer, unassigned) [Example 94, (S) or (R)-2-(1-(6-(5-(((4-cyclobutylpyrimidin-2-yl)oxy)methyl)-1-methyl-1H-1,2,3-triazol-4-yl)-2-ethylpyridin-3-yl)-2-oxopiperidin-3-yl)acetic acid]
< 100	Cc1nc(-c2nnn(C)c2COc2nccc(C3CCC3)n2)ccc1CN1CC(C(=O)O)CC(F)(F)C1 (single isomer, unassigned) [Example 147, (S) or (R)-1-((6-(5-(((4-cyclobutylpyrimidin-2-yl)oxy)methyl)-1-methyl-1H-1,2,3-triazol-4-yl)-2-methylpyridin-3-yl)methyl)-5,5-difluoropiperidine-3-carboxylic acid]
< 100	Cc1nc(-c2nnn(C)c2COc2nccc(C3CCC3)n2)ccc1CN1CC(C(=O)O)CC(F)(F)C1 (single isomer, unassigned) [Example 148, (R) or (S)-1-((6-(5-(((4-cyclobutylpyrimidin-2-yl)oxy)methyl)-1-methyl-1H-1,2,3-triazol-4-yl)-2-methylpyridin-3-yl)methyl)-5,5-difluoropiperidine-3-carboxylic acid]
100 to 500	CCCc1ccc(=O)n(Cc2c(-c3ccc(CN4CC(C(=O)O)CC(F)(F)C4)c(CC)n3)nnn2C)c1 (single isomer, unassigned) [Example 149, (S) or (R)-1-((2-ethyl-6-(1-methyl-5-((2-oxo-5-propylpyridin-1(2H)-yl)methyl)-1H-1,2,3-triazol-4-yl)pyridin-3-yl)methyl)-5,5-difluoropiperidine-3-carboxylic acid]
100 to 500	CCCc1ccc(=O)n(Cc2c(-c3ccc(CN4CC(C(=O)O)CC(F)(F)C4)c(CC)n3)nnn2C)c1 (single isomer, unassigned) [Example 150, (R) or (S)-1-((2-ethyl-6-(1-methyl-5-((2-oxo-5-propylpyridin-1(2H)-yl)methyl)-1H-1,2,3-triazol-4-yl)pyridin-3-yl)methyl)-5,5-difluoropiperidine-3-carboxylic acid]
< 100	CCc1nc(-c2nnn(C)c2COc2nccc(C3CCC3)n2)ccc1CN1CC(C(=O)O)CC(F)(F)C1 (single isomer, unassigned) [Example 152, (S) or (R)-1-((6-(5-(((4-cyclobutylpyrimidin-2-yl)oxy)methyl)-1-methyl-1H-1,2,3-triazol-4-yl)-2-ethylpyridin-3-yl)methyl)-5,5-difluoropiperidine-3-carboxylic acid]
500 to 5000	CCc1nc(-c2nnn(C)c2COc2nccc(C3CCC3)n2)ccc1CN1CC(C(=O)O)CC(F)(F)C1 (single isomer, unassigned) [Example 153, (R) or (S)-1-((6-(5-(((4-cyclobutylpyrimidin-2-yl)oxy)methyl)-1-methyl-1H-1,2,3-triazol-4-yl)-2-ethylpyridin-3-yl)methyl)-5,5-difluoropiperidine-3-carboxylic acid]
100 to 500	CCc1nc(-c2nnn(C)c2Cn2cc(CC(C)C)ccc2=O)ccc1CN1CC(C(=O)O)CC(F)(F)C1 (single isomer, unassigned) [Example 154, (S) or (R)-1-((2-ethyl-6-(5-((5-isobutyl-2-oxopyridin-1(2H)-yl)methyl)-1-methyl-1H-1,2,3-triazol-4-yl)pyridin-3-yl)methyl)-5,5-difluoropiperidine-3-carboxylic acid]
500 to 5000	CCc1nc(-c2nnn(C)c2Cn2cc(CC(C)C)ccc2=O)ccc1CN1CC(C(=O)O)CC(F)(F)C1 (single isomer, unassigned) [Example 155, (R) or (S)-1-((2-ethyl-6-(5-((5-isobutyl-2-oxopyridin-1(2H)-yl)methyl)-1-methyl-1H-1,2,3-triazol-4-yl)pyridin-3-yl)methyl)-5,5-difluoropiperidine-3-carboxylic acid]
100 to 500	CCCc1ccc(=O)n(Cc2c(-c3ccc(CN4CC(C(=O)O)CC(F)(F)C4)c(C)n3)nnn2C)c1 (single isomer, unassigned) [Example 156, (S) or (R)-5,5-difluoro-1-((2-methyl-6-(1-methyl-5-((2-oxo-5-propylpyridin-1(2H)-yl)methyl)-1H-1,2,3-triazol-4-yl)pyridin-3-yl)methyl)piperidine-3-carboxylic acid]
500 to 5000	CCCc1ccc(=O)n(Cc2c(-c3ccc(CN4CC(C(=O)O)CC(F)(F)C4)c(C)n3)nnn2C)c1 (single isomer, unassigned) [Example 157, (R) or (S)-5,5-difluoro-1-((2-methyl-6-(1-methyl-5-((2-oxo-5-propylpyridin-1(2H)-yl)methyl)-1H-1,2,3-triazol-4-yl)pyridin-3-yl)methyl)piperidine-3-carboxylic acid]
> 5000	CCCc1cnn(Cc2c(-c3ccc(CN4CC(C(=O)O)CC(F)(F)C4)c(C)n3)nnn2C)c(=O)c1 (single isomer, unassigned) [Example 158, (S) or (R)-5,5-difluoro-1-((2-methyl-6-(1-methyl-5-((6-oxo-4-propylpyridazin-1(6H)-yl)methyl)-1H-1,2,3-triazol-4-yl)pyridin-3-yl)methyl)piperidine-3-carboxylic acid]
> 5000	CCCc1cnn(Cc2c(-c3ccc(CN4CC(C(=O)O)CC(F)(F)C4)c(C)n3)nnn2C)c(=O)c1 (single isomer, unassigned) [Example 159, (R) or (S)-5,5-difluoro-1-((2-methyl-6-(1-methyl-5-((6-oxo-4-propylpyridazin-1(6H)-yl)methyl)-1H-1,2,3-triazol-4-yl)pyridin-3-yl)methyl)piperidine-3-carboxylic acid]
500 to 5000	CCCc1ccc(=O)n(Cc2c(-c3ncc(CN4CC(C(=O)O)CC(F)(F)C4)c(CC)n3)cnn2C)c1 (single isomer, unassigned) [Example 160, (S) or (R)-1-((4-ethyl-2-(1-methyl-5-((2-oxo-5-propylpyridin-1(2H)-yl)methyl)-1H-pyrazol-4-yl)pyrimidin-5-yl)methyl)-5,5-difluoropiperidine-3-carboxylic acid]
